# Test results reported in US11161884B2 (SAVID THERAPEUTICS INC., priority 2014, dated 2021).
# How the values were obtained:
# V2122 [1] = biological target: T1, V2122 (Streptomyces avidinii, UniProt P22629, E125D/E140N/N47D/N73G/R108K/R127K/S51D/S69N/Y107S/Y46S); assay: SPR analysis of affinity between V2122 and compound; assay type: binding
# T1 construct: T7-Tag; made in house
# Experimental: Interaction of V2122, which is a LISA314 modified protein purified as described above, with Compound C was investigated by surface plasmon resonance (SPR). More specifically, using Biacore T200 (GE Healthcare BioScience Corp.) as a measuring instrument, and Sensor Chip NTA (GE Healthcare BioScience Corp.) as a sensor chip, the protein was immobilized on the sensor chip by way of His-Tag having been fused to the core protein. The running buffer was prepared using HBS-P(+), as described in the manual. A two-fold dilution series was prepared in nine steps by diluting a 1600 nM solution using the running buffer. The affinity was measured in the kinetics mode, and acquired data was subjected to equilibrium analysis using Biacore T200 Evaluation Software to determine the affinity.
# V2122 [2] = biological target: T1, V2122; assay: ITC binding analysis of V2122 and compounds; conditions: 25 μM V2122, PBS, 25° C.
# Experimental: Microcal iTC200 (MicroCal, Northampton, Mass.) was used for the measurement.
# For the measurement, concentration of the stock solutions was adjusted to a ten-fold concentration of V2122 to be measured. Into a cell of a calorimeter, 25 μM of V2122 was placed, and each solution was added dropwise at a stirring speed of 1000 rpm at 25° C. Obtained data was analyzed using ORIGIN, and the titration curve was fitted based on the one-site binding isotherm.
# [3] = test system: human Burkitt lymphoma Ramos tumor; assay: In vivo imaging, Ramos heterotransplantation model; set-up: species or system nude mice; conditions: pre-mixed with the antibody, intravenous
# Experimental: The thus purified Rituximab-scFv-V2122 was preliminarily mixed with Psyche F-IRDye 800 (Compound 44 in Example) dissolved in DMSO (final concentration is ten-fold molar concentration), and incubated on ice for 10 minutes. The buffer was then replaced with Japanese Pharmacopoeia physiological saline (Otsuka Pharmaceutical Co., Ltd.) using Zeba Spin Desalting Column (Thermo Fisher Scientific Inc.).
# (§1) Ramos cell suspension and Matrigel Matrix (Corning) were mixed in a ratio of 1:1 (5×10^6 cells/0.1 mL), and 0.1 mL of the mixed liquid was administered subcutaneously in the left side of 5 to 6-week-old female nude mice (Sankyo Labo Service Corporation, Inc.). The mice were bred for several weeks to produce tumor. One week before imaging, the feed was switched to a low fluorescence feed (iVid #1, Oriental Yeast Co., Ltd.) and the breeding was continued. […]
# Rituximab-scFv-V2122 antibody (25 μg, 50 μg, 100 μg), preliminarily labeled with fluorescence by reacting it with Psyche F-IRDye 800 (Compound 44 in Example), was intravenously administered to nude mice having established human Burkitt lymphoma Ramos. For investigation into accumulation in tumor, accumulation of IRDye 800 in the tumor was evaluated 2, 24 and 48 hours after the administration, using in vivo photo-imaging instrument Clairvivo OPT plus (Shimadzu Corporation) (FIG. 19).
# DLD1 tumor = assay: In vivo imaging, DLD1 heterotransplantation model; set-up: species or system nude mice; conditions: pre-mixed with the antibody, intravenous
# Experimental: The thus purified anti-epiregulin scFv-V2122 was mixed with Psyche F-IRDye 800 (Compound 44 in Example) dissolved in DMSO (final concentration was ten-fold molar concentration), and the mixture was incubated on ice for 10 minutes. The buffer was then replaced with Japanese Pharmacopoeia physiological saline (Otsuka Pharmaceutical Co., Ltd.) using Zeba Spin Desalting Column (Thermo Fisher Scientific Inc.) and was stored under cooling. Epiregulin IgG was labeled using ICG Labeling Kit-NH2 (Dojindo Laboratories).
# as §1, with “Suspension liquid of human colorectal cancer-derived DLD1” for “Ramos”, “cell” for “cell suspension”
# Anti-epiregulin scFv-V2122 antibody (25 μg, 50 μg, 100 μg) preliminarily labeled with fluorescence by allowing it to react with Psyche F-IRDye 800 (Compound 44 in Example), or fluorescent-labeled epiregulin IgG (50 μg) was intravenously administered to nude mice having established DLD1 tumor. […]
# Rituximab-scFv-V2122 = assay: Flow cytometry: binding of FITC-labeled compound to Rituximab-scFv-V2122 on RAMOS cell; assay type: cell-based; conditions: RAMOS cells pre-incubated with Rituximab-scFv-V2122; compound 3 nM, 10 nM, 30 nM
# Experimental: The thus refolded and purified Rituximab-scFv-V2122 was evaluated regarding binding potential with RAMOS (human Burkitt lymphoma) cell (JCRB Cell Bank), which is a CD20 positive cell. More specifically, Rituximab-scFv-V2122 was diluted with PBS into three concentrations (0.05, 0.5, 5 μg/mL). 1×10^6 cells were placed in a 1.5 mL tube, centrifuged at 400×g for 4 minutes, and the supernatant was discarded to collect the cells. The collected cells were added with 100 μL of the diluted Rituximab-scFv-V2122, mixed well, and then incubated on ice for 30 minutes. The content was centrifuged again, the supernatant was discarded, added with 1 mL of PBS to wash the cells, and the cells were then collected. […] After the incubation, the content was centrifuged again, the supernatant was discarded, added with 1 mL of PBS to wash the cells, and the cells were then collected. The collected cells were suspended in 500 μL of PBS, and measured on a flow cytometer (guava easyCyte Single System; Merck Millipore).
# T1 sequence (P22629 37-163 Y46S/N47D/S51D/S69N/N73G/Y107S/R108K/E125D/R127K/E140N): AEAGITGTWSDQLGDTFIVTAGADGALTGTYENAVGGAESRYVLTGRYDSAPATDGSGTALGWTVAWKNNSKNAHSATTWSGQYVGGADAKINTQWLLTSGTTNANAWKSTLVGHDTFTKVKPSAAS
smiles,measurement,setting,value
"N=C1N[C@H]2[C@H](CS[C@H]2CCCCC(=O)NCCCCCC(=O)NCCNC(=O)CCCCCNC(=O)CCCC[C@@H]2SC[C@@H]3NC(=N)N[C@@H]32)N1 [Compound 7, (3aS,3a′S,4S,4′S,6aR,6a′R)-4,4′-(5,12,17,24-Tetraoxo-6,13,16,23-tetraazaoctacosane-1,28-diyl)bis[tetrahydro-1H-thieno[3,4-d]imidazole-2(3H)-iminium] di(2,2,2-trifluoroacetate)]",Kd,V2122 [1],3.15 nM
same,interaction with V2122 measured by ITC,V2122 [2],"exothermic, suggesting a strong binding"
"COC(=O)[C@H](CCCCNC(=O)c1cc(NC(=O)NCCOCCOCCNC(=O)CCCCC[N+]2=C(/C=C/C3=C(Oc4ccc(S(=O)(=O)O)cc4)C(=C/C=C4/N(CCCCS(=O)(=O)O)c5ccc(S(=O)(=O)O)cc5C4(C)C)/CCC3)C(C)(C)c3cc(S(=O)(=O)[O-])ccc32)cc(C(=O)NCCCC[C@H](NC(=O)CCCC[C@@H]2SC[C@@H]3NC(=N)N[C@@H]32)C(=O)OC)c1)NC(=O)CCCC[C@@H]1SC[C@@H]2NC(=N)N[C@@H]21 [Compound 44, 1-(1-((3,5-Bis(((S)-5-(5-((3aS,4S,6aR)-2-iminohexahydro-1H-thieno[3,4-d]imidazole-4-yl)pentanamido)-6-methoxy-6-oxohexyl)carbamoyl)phenyl)amino)-1,12-dioxo-5,8-dioxa-2,11-diazaheptadecane-17-yl)-2-((E)-2-((E)-3-(2-((E)-3,3-dimethyl-5-sulfo-1-(4-sulfobutyl)indoline-2-ilidene)ethylidene)-2-(4-sulfophenoxy)cyclohex-1-ene-1-yl)vinyl)-3,3-dimethyl-3H-indol-1-ium-5-sulfonate]",binding with Rituximab-scFv-V2122 antibody in vivo,[3],remain bound in vivo
same,binding with anti-epiregulin scFv-V2122 antibody in vivo,DLD1 tumor,remain bound in vivo
N=C1N[C@H]2[C@H](CS[C@H]2CCCCC(=O)NCCCCCC(=O)Nc2cc(NC(=O)CCCCCNC(=O)CCCC[C@@H]3SC[C@@H]4NC(=N)N[C@@H]43)cc(C(=O)NCCOCCOCCNC(=S)Nc3ccc4c(c3)C(=O)OC43c4ccc(O)cc4Oc4cc(O)ccc43)c2)N1 [FITC-labeled Compound B],"binding with Rituximab-scFv-V2122, shifts of fluorescence intensity",Rituximab-scFv-V2122,concentration-dependent shifts of fluorescence intensity were also confirmed
"O=C(O)CCCC[C@@H]1SC[C@@H]2NC(=O)N[C@@H]21 [biotin, reference compound]",interaction with V2122 measured by ITC,V2122 [2],non-interactive
